Blank lines part the entries; values can stand above or below the compound they belong to.
Key:
[1] = Quantum yield measurements versus Acridine Yellow in EtOH; assay type: physicochemical; settings: for φ (quantum yield): excitation 460 nm; for φ (%): quantum yield
In short: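 Fluorescence quantum yield is relative to Acridine Yellow in EtOH (Φ 0.47), with excitation at 460 nm. Integrated emission at 510–700 nm was corrected for absorbance at the excitation wavelength and for solvent refractive index.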

[2] = Absorbance and fluorescence emission spectra (SpectraMax M2); assay type: physicochemical; settings: for λmax Abs. (nm) / λmax Em. (nm): MKAC compound library; for λmax Abs. (nm) / λmax Absorp. (nm): absorbance maximum; for λmax Em. (nm) / λmax Emission (nm): fluorescence emission maximum; for λmax Absorp. (nm) / λmax Emission (nm): MKCA compound library
In short: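 Absorbance and emission maxima measured on a SpectraMax M2 spectrophotometer, which also gave quantum yield data; analysis in GraphPrism.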

Compound: CN(Cc1ccccc1)C1=[N+]2C(=C(c3ccc(NC(=O)CCl)cc3)c3ccc(-n4cc(CCc5ccccc5)nn4)n3[B-]2(F)F)C=C1 [MKCA195-19]
φ (%) ([1]; MKCA compound library): 6.77%
λmax Absorp. (nm) [2]: 467 nm
λmax Emission (nm) [2]: 586 nm

Compound: CCCCCCCCc1cn(-c2ccc3n2[B-](F)(F)[N+]2=C(N4CCCCC4)C=CC2=C3c2ccc(N)cc2)nn1 [BDC-44]
φ (quantum yield) ([1]; BDC library, Table 2): 0.13%
λmax Absorp. ([2]; BDC library, Table 2): 475 nm
λmax Emission ([2]; BDC library, Table 2): 583 nm

Compound: O=C(CCl)Nc1ccc(C2=C3C=CC(N4CCCCC4)=[N+]3[B-](F)(F)n3c2ccc3-n2cc(C3CCCCC3)nn2)cc1 [BDCCA-6]
φ (quantum yield) ([1]; BDCCA library, Table 4): 2.3%
λmax Absorp. ([2]; BDCCA library, Table 4): 467 nm
λmax Emission ([2]; BDCCA library, Table 4): 555 nm

Compound: Nc1ccc(C2=C3C=CC(N4CCc5ccccc5C4)=[N+]3[B-](F)(F)n3c2ccc3-n2cc(C3CCCC3)nn2)cc1 [MK66-5]
φ (quantum yield) ([1]; MK library, Table 5): 0.19%
λmax Absorp. ([2]; MK library, Table 5): 481 nm
λmax Emission ([2]; MK library, Table 5): 582 nm

Compound: O=C(CCl)Nc1ccc(C2=C3C=CC(N4CCCC4)=[N+]3[B-](F)(F)n3c2ccc3-n2cc(CC3CCCCC3)nn2)cc1 [MKCA215-8]
φ (%) ([1]; MKCA compound library): 2.66%
λmax Absorp. (nm) [2]: 463 nm
λmax Emission (nm) [2]: 564 nm

Compound: CCCc1cn(-c2ccc3n2[B-](F)(F)[N+]2=C(N4CCc5ccccc5C4)C=CC2=C3c2ccc(N)cc2)nn1 [MK66-48]
φ (quantum yield) ([1]; MK library, Table 5): 0.12%
λmax Absorp. ([2]; MK library, Table 5): 480 nm
λmax Emission ([2]; MK library, Table 5): 581 nm

Compound: CN(C)c1ccc(-c2cn(-c3ccc4n3[B-](F)(F)[N+]3=C(N5CCCCC5)C=CC3=C4c3ccc(NC(=O)CCl)cc3)nn2)cc1 [BDCCA-13]
φ (quantum yield) ([1]; BDCCA library, Table 4): 0.1%
λmax Absorp. ([2]; BDCCA library, Table 4): 467 nm
λmax Emission ([2]; BDCCA library, Table 4): 627 nm

Compound: COc1cccc(-c2cn(-c3ccc4n3[B-](F)(F)[N+]3=C(N5CCCCC5)C=CC3=C4c3ccc(N)cc3)nn2)c1 [BDC-27]
φ (quantum yield) ([1]; BDC library, Table 2): 0.17%
λmax Absorp. ([2]; BDC library, Table 2): 472 nm
λmax Emission ([2]; BDC library, Table 2): 565 nm

Compound: CCCc1cn(-c2ccc3n2[B-](F)(F)[N+]2=C(N4CCc5ccccc5C4)C=CC2=C3c2ccc(NC(C)=O)cc2)nn1 [MKAC66-48]
φ (%) ([1]; MKAC compound library): 2.14%
λmax Abs. (nm) [2]: 469 nm
λmax Em. (nm) [2]: 582 nm

Compound: CCCc1cn(-c2ccc3n2[B-](F)(F)[N+]2=C(N(C)Cc4ccccc4)C=CC2=C3c2ccc(NC(C)=O)cc2)nn1 [MKAC195-48]
φ (%) ([1]; MKAC compound library): 2.72%
λmax Abs. (nm) [2]: 467 nm
λmax Em. (nm) [2]: 575 nm

Compound: CN(Cc1ccccc1)Cc1cn(-c2ccc3n2[B-](F)(F)[N+]2=C(N4CCc5ccccc5C4)C=CC2=C3c2ccc(NC(=O)CCl)cc2)nn1 [MKCA66-18]
φ (%) ([1]; MKCA compound library): 2.33%
λmax Absorp. (nm) [2]: 466 nm
λmax Emission (nm) [2]: 585 nm

Compound: CC(=O)Nc1ccc(C2=C3C=CC(N4CCCCC4)=[N+]3[B-](F)(F)n3c2ccc3-n2cc(CCC(C)C)nn2)cc1 [BDCAC-36]
φ (quantum yield) ([1]; BDCAC library, Table 3): 0.8%
λmax Absorp. ([2]; BDCAC library, Table 3): 467 nm
λmax Emission ([2]; BDCAC library, Table 3): 585 nm

Compound: Cc1ccccc1CNC1=[N+]2C(=C(c3ccc(N)cc3)c3ccc(-n4cc(CC5CCCCC5)nn4)n3[B-]2(F)F)C=C1 [MK101-8]
φ (quantum yield) ([1]; MK library, Table 5): 0.64%
absorbance λmax ([2]; FIG. 2 normalized spectra): 474 nm
emission λmax ([2]; FIG. 2 normalized spectra): 563 nm
λmax Absorp. ([2]; MK library, Table 5): 475 nm
λmax Emission ([2]; MK library, Table 5): 564 nm

Compound: CC(=O)Nc1ccc(C2=C3C=CC(N4CCCCC4)=[N+]3[B-](F)(F)n3c2ccc3-n2cc(-c3ccc(C(C)(C)C)cc3)nn2)cc1 [BDCAC-11]
φ (quantum yield) ([1]; BDCAC library, Table 3): 1.4%
λmax Absorp. ([2]; BDCAC library, Table 3): 465 nm
λmax Emission ([2]; BDCAC library, Table 3): 582 nm

Compound: CC(=O)Nc1ccc(C2=C3C=CC(N4CCCCC4)=[N+]3[B-](F)(F)n3c2ccc3-n2cc(CC3CCCCC3)nn2)cc1 [BDCAC-8]
φ (quantum yield) ([1]; BDCAC library, Table 3): 0.9%
λmax Absorp. ([2]; BDCAC library, Table 3): 468 nm
λmax Emission ([2]; BDCAC library, Table 3): 585 nm

The next lines start with the values.

φ (quantum yield) ([1]; BDCCA library, Table 4): 2.6%
λmax Absorp. ([2]; BDCCA library, Table 4): 458 nm
λmax Emission ([2]; BDCCA library, Table 4): 556 nm
Compound: O=C(CCl)Nc1ccc(C2=C3C=CC(N4CCCCC4)=[N+]3[B-](F)(F)n3c2ccc3-n2cc(-c3cc(C(F)(F)F)cc(C(F)(F)F)c3)nn2)cc1 [BDCCA-30]

φ (%) ([1]; MKAC compound library): 2.40%
λmax Abs. (nm) [2]: 469 nm
λmax Em. (nm) [2]: 583 nm
Compound: CCCC(C)c1cn(-c2ccc3n2[B-](F)(F)[N+]2=C(N4CCc5ccccc5C4)C=CC2=C3c2ccc(NC(C)=O)cc2)nn1 (centres unmarked) [MKAC66-3]

φ (%) ([1]; MKAC compound library): 15.35%
λmax Abs. (nm) [2]: 464 nm
λmax Em. (nm) [2]: 558 nm
Compound: CCOc1ccccc1CNC1=[N+]2C(=C(c3ccc(NC(C)=O)cc3)c3ccc(-n4cc(CO)nn4)n3[B-]2(F)F)C=C1 [MKAC103-70]

φ (%) ([1]; MKCA compound library): 3.18%
λmax Absorp. (nm) [2]: 469 nm
λmax Emission (nm) [2]: 584 nm
Compound: CCCc1cn(-c2ccc3n2[B-](F)(F)[N+]2=C(N4CCc5ccccc5C4)C=CC2=C3c2ccc(NC(=O)CCl)cc2)nn1 [MKCA66-48]

φ (%) ([1]; MKCA compound library): 30.05%
λmax Absorp. (nm) [2]: 465 nm
λmax Emission (nm) [2]: 562 nm
Compound: CCCCCC(O)c1cn(-c2ccc3n2[B-](F)(F)[N+]2=C(NCc4cc(F)cc(F)c4)C=CC2=C3c2ccc(NC(=O)CCl)cc2)nn1 (centres unmarked) [MKCA412-69]

φ (quantum yield) ([1]; MK library, Table 5): 2.92%
λmax Absorp. ([2]; MK library, Table 5): 473 nm
λmax Emission ([2]; MK library, Table 5): 562 nm
Compound: CCCc1cn(-c2ccc3n2[B-](F)(F)[N+]2=C(NCc4ccccc4C)C=CC2=C3c2ccc(N)cc2)nn1 [MK101-48]

φ (quantum yield) ([1]; BDCAC library, Table 3): 1.6%
λmax Absorp. ([2]; BDCAC library, Table 3): 465 nm
λmax Emission ([2]; BDCAC library, Table 3): 561 nm
Compound: CCCCCc1ccc(-c2cn(-c3ccc4n3[B-](F)(F)[N+]3=C(N5CCCCC5)C=CC3=C4c3ccc(NC(C)=O)cc3)nn2)cc1 [BDCAC-29]

φ (%) ([1]; MKAC compound library): 24.16%
λmax Abs. (nm) [2]: 467 nm
λmax Em. (nm) [2]: 562 nm
Compound: CC(=O)Nc1ccc(C2=C3C=CC(NCc4cc(F)cc(F)c4)=[N+]3[B-](F)(F)n3c2ccc3-n2cc(CCc3ccccc3)nn2)cc1 [MKAC412-19]

φ (quantum yield) ([1]; BDCAC library, Table 3): 0.7%
λmax Absorp. ([2]; BDCAC library, Table 3): 462 nm
λmax Emission ([2]; BDCAC library, Table 3): 586 nm
Compound: CC(=O)Nc1ccc(C2=C3C=CC(N4CCCCC4)=[N+]3[B-](F)(F)n3c2ccc3-n2cc(-c3ccc(F)c(F)c3)nn2)cc1 [BDCAC-16]

φ (quantum yield) ([1]; BDCCA library, Table 4): 0.6%
λmax Absorp. ([2]; BDCCA library, Table 4): 465 nm
λmax Emission ([2]; BDCCA library, Table 4): 584 nm
Compound: O=C(CCl)Nc1ccc(C2=C3C=CC(N4CCCCC4)=[N+]3[B-](F)(F)n3c2ccc3-n2cc(CO)nn2)cc1 [BDCCA-70]

φ (quantum yield) ([1]; BDCCA library, Table 4): 1.2%
λmax Absorp. ([2]; BDCCA library, Table 4): 464 nm
λmax Emission ([2]; BDCCA library, Table 4): 568 nm
Compound: CCc1ccc(-c2cn(-c3ccc4n3[B-](F)(F)[N+]3=C(N5CCCCC5)C=CC3=C4c3ccc(NC(=O)CCl)cc3)nn2)cc1 [BDCCA-46]

φ (%) ([1]; MKAC compound library): 2.00%
λmax Abs. (nm) [2]: 462 nm
λmax Em. (nm) [2]: 566 nm
Compound: CCCCCC(O)c1cn(-c2ccc3n2[B-](F)(F)[N+]2=C(N4CCCC4)C=CC2=C3c2ccc(NC(C)=O)cc2)nn1 (racemic) [MKAC215-69]

φ (%) ([1]; MKCA compound library): 26.25%
λmax Absorp. (nm) [2]: 463 nm
λmax Emission (nm) [2]: 560 nm
Compound: CN(Cc1ccccc1)Cc1cn(-c2ccc3n2[B-](F)(F)[N+]2=C(NCc4cc(F)cc(F)c4)C=CC2=C3c2ccc(NC(=O)CCl)cc2)nn1 [MKCA412-18]

φ (%) ([1]; MKAC compound library): 3.467%
λmax Abs. (nm) [2]: 467 nm
λmax Em. (nm) [2]: 560 nm
Compound: CCCCCC(O)c1cn(-c2ccc3n2[B-](F)(F)[N+]2=C(N(C)Cc4ccccc4)C=CC2=C3c2ccc(NC(C)=O)cc2)nn1 (racemic) [MKAC195-69]

φ (quantum yield) ([1]; BDCCA library, Table 4): 2.7%
λmax Absorp. ([2]; BDCCA library, Table 4): 463 nm
λmax Emission ([2]; BDCCA library, Table 4): 555 nm
Compound: Cc1cccc(-c2cn(-c3ccc4n3[B-](F)(F)[N+]3=C(N5CCCCC5)C=CC3=C4c3ccc(NC(=O)CCl)cc3)nn2)c1 [BDCCA-45]

— patent publication US9513294B2, “Megastokes amino-triazolyl-BODIPY compounds and applications to live neuron staining and human serum albumin FA1 drug site probing” (National University of Singapore, priority 2012, dated 2016)
